Data published in patent US4798905A, “Sulphenylated carbamic acid esters, a process for their preparation and their use” (Bayer Aktiengesellschaft, priority 1984, dated 1989).
Values after ≈ are worked out from the molar mass of the structure shown.

Assays:
Pyrenophora teres = Pyrenophora teres test (barley)/protective; details: protective, 0.025 % by weight in the spray liquor, 7 days after inoculation
Experimental: Solvent: 100 parts by weight of dimethylformamide
Emulsifier: 0.25 part by weight of alkylaryl polyglycol ether
After the spray coating has dried on, the plants are sprayed with a conidia suspension of Pyrenophora teres. The plants then remain in an incubation cabin at 20° C. and 100% relative atmospheric humidity for 48 hours.
The plants are placed in a greenhouse at a temperature of about 20° C. and a relative atmospheric humidity of about 80%.
(§2) Evaluation is carried out 7 days after the inoculation.

Drechslera graminea = Drechslera graminea test (barley)/seed treatment (syn. Helminthosporium gramineum); type: in vivo; details: seed treatment, about 3 weeks after sowing, undressed 29.7
Aspergillus niger = assay: Minimum inhibitory concentration (MIC) in agar, Aspergillus niger; type: cell-based; details: 336 h, 28° C., two weeks
Experimental: (§1) Active compounds according to the invention are added in concentrations of 0.1 mg/l to 5,000 mg/l to an agar prepared from bierwort and peptone. After being kept at 28° C. and 60 to 70% relative atmospheric humidity for two weeks, the MIC is determined. The MIC is the lowest concentration of active compound at which no growth at all by the species of microbe used takes place, and is shown in the following Table I.

Penicillium glaucum = assay: Minimum inhibitory concentration (MIC) in agar, Penicillium glaucum; type: cell-based; details: 336 h, 28° C., two weeks
Experimental: as §1

Chaetomium globosum = assay: Minimum inhibitory concentration (MIC) in agar, Chaetomium globosum; type: cell-based; details: 336 h, 28° C., two weeks
Experimental: as §1

Pyricularia oryzae = type: in vivo; details: rice, protective; active compound concentration 0.025 %; 4 days after inoculation
Plasmopara viticola = assay: Plasmopara test (vines)/protective; details: protective, 7 days after inoculation
Experimental: Solvent: 4.7 parts by weight of acetone
Emulsifier: 0.3 part by weight of alkylaryl polyglycol ether
After the spray coating has dried on, the plants are inoculated with an aqueous spore suspension of Plasmopara viticola and then remain in a humidity chamber at 20° to 22° C. and 100% relative atmospheric humidity for 1 day. The plants are then placed in a greenhouse at 22° C. and about 80% atmospheric humidity for 5 days. The plants are then moistened and placed in a humidity chamber for 1 day.
as §2

Coniophora puteana = assay: Minimum inhibitory concentration (MIC) in agar, Coniophora puteana; type: cell-based; details: 336 h, 28° C., two weeks
Experimental: as §1

Polyporus versicolor = assay: Minimum inhibitory concentration (MIC) in agar, Polyporus versicolor; type: cell-based; details: Trametes versicolor, 336 h, 28° C., two weeks
Experimental: as §1

Sclerophoma pityophila = assay: Minimum inhibitory concentration (MIC) in agar, Sclerophoma pityophila; type: cell-based; details: Sydowia polyspora, 336 h, 28° C., two weeks
Experimental: as §1

Aureobasidium pullulans = assay: Minimum inhibitory concentration (MIC) in agar, Aureobasidium pullulans; type: cell-based; details: 336 h, 28° C., two weeks
Experimental: as §1

Alternaria tenuis = assay: Minimum inhibitory concentration (MIC) in agar, Alternaria tenuis; type: cell-based; details: Alternaria alternata, 336 h, 28° C., two weeks
Experimental: as §1

Lentinus tigrinus = assay: Minimum inhibitory concentration (MIC) in agar, Lentinus tigrinus; type: cell-based; details: 336 h, 28° C., two weeks
Experimental: as §1

COC(=O)N(SC(F)(Cl)Cl)c1ccc(Cl)c(Cl)c1 [drawing 25]
Disease infestation in % of the untreated control (Pyrenophora teres): 14.5%

COC(=O)N(SC(F)(Cl)Cl)c1ccc(Cl)cc1C [drawing 29]
Diseased plants in % of the total plants emerged (Drechslera graminea; 500 mg/kg of seed): 0.0%

COC(=O)N(SC(F)(Cl)Cl)c1cccc(Cl)c1Cl [Example 14]
MIC (Aspergillus niger): < 20 mg/L
MIC (Penicillium glaucum): < 20 mg/L
MIC (Chaetomium globosum): < 20 mg/L

COC(=O)N(SC(F)(Cl)Cl)c1ccc(Cl)cc1C [Example 29]
MIC (Aspergillus niger): < 20 mg/L
MIC (Penicillium glaucum): < 20 mg/L
MIC (Chaetomium globosum): < 20 mg/L

COC(=O)N(SC(F)(Cl)Cl)c1ccc(Cl)cc1Cl [drawing 12]
Disease infestation in % of the untreated control (Pyrenophora teres): 37.7%

COC(=O)N(SC(F)(Cl)Cl)c1cc(Cl)c(OC)c(Cl)c1
Disease infestation in % of the untreated control (Pyrenophora teres): 25.0%

COC(=O)N(SC(Cl)(Cl)Cl)c1ccccc1 [drawing 18]
Disease infestation in % of the untreated control (Pyrenophora teres): 20.3%

COC(=O)N(SC(F)(Cl)Cl)c1ccc(Cl)cc1 [drawing 26]
Disease infestation in % of the untreated control (Pyrenophora teres): 37.7%

COC(=O)N(SC(F)(Cl)Cl)c1ccc(C)c(Cl)c1 [drawing 11]
Disease infestation in % of the untreated control (Pyrenophora teres): 39.4%

CN(C)S(=O)(=O)N(SC(F)(Cl)Cl)c1ccccc1 [drawing 27, reference compound]
Diseased plants in % of the total plants emerged (Drechslera graminea; 600 mg/kg of seed): 23.9%

COC(=O)N(SC(F)(Cl)Cl)c1ccc(OC)c(OC)c1
Disease infestation in % of the untreated control (Pyrenophora teres): 0.0%

COC(=O)N(SC(F)(Cl)Cl)c1ccc(Cl)cc1Cl [Example 16]
MIC (Aspergillus niger): < 20 mg/L
MIC (Penicillium glaucum): < 20 mg/L
MIC (Chaetomium globosum): < 20 mg/L

COC(=O)N(SC(F)(Cl)Cl)c1cccc(C(F)(F)F)c1 [drawing 30]
Diseased plants in % of the total plants emerged (Drechslera graminea; 500 mg/kg of seed): 0.0%

COC(=O)N(SC(F)(Cl)Cl)c1ccc(C)c(Cl)c1 [Example 31]
MIC (Aspergillus niger): < 20 mg/L
MIC (Penicillium glaucum): < 20 mg/L
MIC (Chaetomium globosum): < 20 mg/L

COC(=O)N(SC(F)(Cl)Cl)c1ccc(C(F)(F)F)c(Cl)c1 [drawing 17]
Disease infestation in % of the untreated control (Pyrenophora teres): 20.3%

COc1ccc(N(SC(F)(Cl)Cl)C(=O)OC(C)C)cc1OC
Disease infestation in % of the untreated control (Pyrenophora teres): 25.0%

COC(=O)N(SC(F)(Cl)Cl)c1cc(Cl)cc(Cl)c1 [drawing 31]
Diseased plants in % of the total plants emerged (Drechslera graminea; 500 mg/kg of seed): 0.0%

COC(=O)N(SC(F)(Cl)Cl)c1ccccc1
Diseased plants in % of the total plants emerged (Drechslera graminea; 500 mg/kg of seed): 3.1%

COC(=O)N(SC(F)(Cl)Cl)c1cccc(Cl)c1 [drawing 16]
Disease infestation in % of the untreated control (Pyrenophora teres): 20.3%

COCCOC(=O)N(SC(F)(Cl)Cl)c1ccccc1
Disease infestation in % of the untreated control (Pyricularia oryzae): 30%

O=C(OCc1ccccc1)N(SC(F)(Cl)Cl)c1ccccc1 [drawing 39]
Infestation in % (Plasmopara viticola; active compound concentration 1 ppm): 47%
Infestation in % (Plasmopara viticola; active compound concentration 2 ppm): 24%

O=C(OCc1ccccc1)N(SC(F)(Cl)Cl)c1ccccc1 [drawing 36]
Disease infestation in % of the untreated control (Pyricularia oryzae): 0%

COC(=O)N(SC(F)(Cl)Cl)c1ccc(C(F)(F)F)c(Cl)c1 [drawing 32]
Diseased plants in % of the total plants emerged (Drechslera graminea; 500 mg/kg of seed): 1.0%

CN(C)S(=O)(=O)N(SC(F)(Cl)Cl)c1ccccc1 [drawing 10, reference compound]
Disease infestation in % of the untreated control (Pyrenophora teres): 72.5%

CCOC(=O)N(SC(F)(Cl)Cl)c1cc(Cl)cc(Cl)c1 [Example 23]
MIC (Coniophora puteana): 1 mg/L (≈ 2.72 µM)
MIC (Polyporus versicolor): 2 mg/L (≈ 5.45 µM)
MIC (Aspergillus niger): 35 mg/L (≈ 95.4 µM)
MIC (Penicillium glaucum): 7.5 mg/L (≈ 20.4 µM)
MIC (Chaetomium globosum): 10 mg/L (≈ 27.2 µM)
MIC (Sclerophoma pityophila): 1.5 mg/L (≈ 4.09 µM)
MIC (Aureobasidium pullulans): 3.5 mg/L (≈ 9.54 µM)
MIC (Alternaria tenuis): 5 mg/L (≈ 13.6 µM)
MIC (Lentinus tigrinus): 1 mg/L (≈ 2.72 µM)

COC(=O)N(SC(F)(Cl)Cl)c1cccc(Cl)c1 [Example 9]
MIC (Aspergillus niger): < 20 mg/L
MIC (Penicillium glaucum): < 20 mg/L
MIC (Chaetomium globosum): < 20 mg/L

COC(=O)N(SC(Cl)(Cl)Cl)c1ccccc1 [Example 41]
MIC (Coniophora puteana): 0.1 mg/L (≈ 0.333 µM)
MIC (Polyporus versicolor): 1.5 mg/L (≈ 4.99 µM)
MIC (Aspergillus niger): 5 mg/L (≈ 16.6 µM)
MIC (Penicillium glaucum): 20 mg/L (≈ 66.5 µM)
MIC (Chaetomium globosum): 2 mg/L (≈ 6.65 µM)
MIC (Sclerophoma pityophila): 1 mg/L (≈ 3.33 µM)
MIC (Aureobasidium pullulans): 1.5 mg/L (≈ 4.99 µM)
MIC (Alternaria tenuis): 0.5 mg/L (≈ 1.66 µM)
MIC (Lentinus tigrinus): 0.5 mg/L (≈ 1.66 µM)

COc1c(Cl)cc(N(SC(F)(Cl)Cl)C(=O)OC(C)C)cc1Cl
Disease infestation in % of the untreated control (Pyrenophora teres): 25.0%

COC(=O)N(SC(F)(Cl)Cl)c1ccc(Cl)c(Cl)c1 [Example 18]
MIC (Aspergillus niger): 35 mg/L (≈ 99.1 µM)
MIC (Penicillium glaucum): < 20 mg/L
MIC (Chaetomium globosum): < 20 mg/L

COC(=O)N(SC(F)(Cl)Cl)c1ccc(Cl)cc1 [Example 1]
MIC (Aspergillus niger): < 20 mg/L
MIC (Penicillium glaucum): < 20 mg/L
MIC (Chaetomium globosum): < 20 mg/L

O=C(OCc1ccc(Cl)c(Cl)c1)N(SC(F)(Cl)Cl)c1ccccc1
Disease infestation in % of the untreated control (Pyricularia oryzae): 10%

O=C(OCC(Cl)(Cl)Cl)N(SC(F)(Cl)Cl)c1ccc(Cl)cc1
Disease infestation in % of the untreated control (Pyrenophora teres): 33.7%

COC(=O)N(SC(F)(Cl)Cl)c1ccc(Cl)cc1C [drawing 13]
Disease infestation in % of the untreated control (Pyrenophora teres): 31.3%

COC(=O)N(SC(F)(Cl)Cl)c1cc(Cl)cc(Cl)c1 [drawing 15]
Disease infestation in % of the untreated control (Pyrenophora teres): 30.3%

COC(=O)N(SC(F)(Cl)Cl)c1ccc(C)c(Cl)c1 [drawing 28]
Diseased plants in % of the total plants emerged (Drechslera graminea; 500 mg/kg of seed): 3.2%

COC(=O)N(SC(F)(Cl)Cl)c1cccc(C(F)(F)F)c1 [drawing 14]
Disease infestation in % of the untreated control (Pyrenophora teres): 30.3%

CCOc1ccc(N(SC(F)(Cl)Cl)C(=O)OC)cc1
Disease infestation in % of the untreated control (Pyrenophora teres): 29.4%
